What was measured:
CK1α = target: T1, CK1α (Homo sapiens, UniProt P48729+Q96SW2); assay: Western-blot assay of substrate protein degradation in hPBMCs, CK1α; type: cell-based; conditions: 24 hours of compound treatment
T1 construct: endogenous in cells; host or cells: hPBMCs (Milecell Biotechnologies)

[1] = target: T2, human Cereblon WT GST-tagged protein (Homo sapiens, UniProt Q96SW2); assay: CRBN-binding affinity by HTRF (CEREBLON BINDING kit); conditions: HTRF inhibitory activity, CEREBLON BINDING kit; read-out: HTRF IC50
T2 construct: purchased CISBIO 64BDCRBNPEH

IKZF2 = target: T3, IKZF2 (Homo sapiens, UniProt Q96SW2+Q9UKS7); assay: Western-blot assay of substrate protein degradation in hPBMCs, IKZF2; type: cell-based; conditions: 24 hours of compound treatment
T3 construct: endogenous in cells; host or cells: hPBMCs (Milecell Biotechnologies)

GSPT1 = target: T4, GSPT1 (Homo sapiens, UniProt P15170+Q96SW2); assay: Western-blot assay of substrate protein degradation in hPBMCs, GSPT1; type: cell-based; conditions: 24 hours of compound treatment
T4 construct: endogenous in cells; host or cells: hPBMCs (Milecell Biotechnologies)

IKZF1 = target: T5, IKZF1 (Homo sapiens, UniProt Q13422+Q96SW2); assay: Western-blot assay of substrate protein degradation in hPBMCs, IKZF1; type: cell-based; conditions: 24 hours of compound treatment
T5 construct: endogenous in cells; host or cells: hPBMCs (Milecell Biotechnologies)

WEE1 = target: T6, WEE1 (Homo sapiens, UniProt P30291+Q96SW2); assay: Western-blot assay of substrate protein degradation in hPBMCs, WEE1; type: cell-based; conditions: 24 hours of compound treatment
T6 construct: endogenous in cells; host or cells: hPBMCs (Milecell Biotechnologies)

IKZF3 = target: T7, IKZF3 (Homo sapiens, UniProt Q96SW2+Q9UKT9); assay: Western-blot assay of substrate protein degradation in hPBMCs, IKZF3; type: cell-based; conditions: 24 hours of compound treatment
T7 construct: endogenous in cells; host or cells: hPBMCs (Milecell Biotechnologies)

[2] = compounds tested at 50 nM and 500 nM (concentration of the table not stated)
[3] = 50 nM and 500 nM tested (concentration behind the class not stated)

T6 sequence (P30291 whole entry): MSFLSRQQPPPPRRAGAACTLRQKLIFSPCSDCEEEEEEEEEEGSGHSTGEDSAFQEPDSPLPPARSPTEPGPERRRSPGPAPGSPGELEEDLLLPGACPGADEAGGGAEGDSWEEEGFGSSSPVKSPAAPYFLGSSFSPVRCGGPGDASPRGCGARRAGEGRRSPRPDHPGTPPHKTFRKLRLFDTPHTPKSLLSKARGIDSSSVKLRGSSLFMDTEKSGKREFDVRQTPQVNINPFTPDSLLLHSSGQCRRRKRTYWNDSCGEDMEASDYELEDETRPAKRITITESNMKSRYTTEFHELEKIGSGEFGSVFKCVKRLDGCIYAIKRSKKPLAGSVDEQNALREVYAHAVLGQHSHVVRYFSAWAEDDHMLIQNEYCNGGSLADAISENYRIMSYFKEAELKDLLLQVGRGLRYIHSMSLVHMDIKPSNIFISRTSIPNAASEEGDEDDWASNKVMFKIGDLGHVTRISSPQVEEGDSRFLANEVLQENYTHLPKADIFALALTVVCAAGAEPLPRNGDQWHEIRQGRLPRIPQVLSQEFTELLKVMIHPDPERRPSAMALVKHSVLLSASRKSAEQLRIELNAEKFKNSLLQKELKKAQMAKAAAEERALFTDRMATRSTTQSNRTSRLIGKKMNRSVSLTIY
T6 sequence (Q96SW2 whole entry): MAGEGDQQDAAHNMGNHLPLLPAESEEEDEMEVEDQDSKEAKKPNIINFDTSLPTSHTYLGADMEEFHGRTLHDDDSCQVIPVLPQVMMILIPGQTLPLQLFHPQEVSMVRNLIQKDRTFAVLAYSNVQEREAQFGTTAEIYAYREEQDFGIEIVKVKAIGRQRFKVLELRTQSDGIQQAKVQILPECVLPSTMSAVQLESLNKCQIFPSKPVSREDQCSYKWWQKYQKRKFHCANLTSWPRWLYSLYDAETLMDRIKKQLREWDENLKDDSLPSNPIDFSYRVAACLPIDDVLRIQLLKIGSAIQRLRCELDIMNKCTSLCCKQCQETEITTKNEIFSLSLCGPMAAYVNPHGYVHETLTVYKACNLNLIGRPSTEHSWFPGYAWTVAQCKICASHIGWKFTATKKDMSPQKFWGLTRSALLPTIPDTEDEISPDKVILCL
T6 sequence (Q16531 whole entry partner): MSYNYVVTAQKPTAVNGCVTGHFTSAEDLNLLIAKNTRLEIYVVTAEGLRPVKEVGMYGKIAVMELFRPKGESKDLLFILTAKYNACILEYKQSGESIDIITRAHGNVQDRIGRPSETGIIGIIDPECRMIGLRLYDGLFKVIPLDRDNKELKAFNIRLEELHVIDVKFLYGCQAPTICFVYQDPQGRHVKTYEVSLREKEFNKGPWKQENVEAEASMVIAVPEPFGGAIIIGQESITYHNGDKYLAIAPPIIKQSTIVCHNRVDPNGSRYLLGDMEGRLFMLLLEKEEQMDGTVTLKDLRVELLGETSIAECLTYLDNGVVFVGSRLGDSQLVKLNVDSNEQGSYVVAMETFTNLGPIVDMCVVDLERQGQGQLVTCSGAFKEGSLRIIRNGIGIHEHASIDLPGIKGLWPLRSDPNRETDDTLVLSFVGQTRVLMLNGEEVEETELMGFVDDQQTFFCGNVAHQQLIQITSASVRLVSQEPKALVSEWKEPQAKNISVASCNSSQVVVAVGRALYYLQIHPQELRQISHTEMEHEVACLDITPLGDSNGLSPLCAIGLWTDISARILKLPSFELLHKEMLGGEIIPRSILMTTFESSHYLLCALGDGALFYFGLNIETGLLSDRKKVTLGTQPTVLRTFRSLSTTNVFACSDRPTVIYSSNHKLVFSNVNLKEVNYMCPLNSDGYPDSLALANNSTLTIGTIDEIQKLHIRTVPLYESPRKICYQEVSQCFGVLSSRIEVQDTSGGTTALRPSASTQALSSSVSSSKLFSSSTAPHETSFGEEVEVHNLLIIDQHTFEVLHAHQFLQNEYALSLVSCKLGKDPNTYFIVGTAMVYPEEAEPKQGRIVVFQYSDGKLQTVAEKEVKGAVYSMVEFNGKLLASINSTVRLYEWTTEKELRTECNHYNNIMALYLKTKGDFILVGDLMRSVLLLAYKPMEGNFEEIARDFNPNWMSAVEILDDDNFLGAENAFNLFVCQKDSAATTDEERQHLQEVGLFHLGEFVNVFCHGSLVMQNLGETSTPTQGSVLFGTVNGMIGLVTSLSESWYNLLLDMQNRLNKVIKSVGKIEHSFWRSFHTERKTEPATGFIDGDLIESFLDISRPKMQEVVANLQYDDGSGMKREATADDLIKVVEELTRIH
T7 sequence (Q9UKT9 whole entry): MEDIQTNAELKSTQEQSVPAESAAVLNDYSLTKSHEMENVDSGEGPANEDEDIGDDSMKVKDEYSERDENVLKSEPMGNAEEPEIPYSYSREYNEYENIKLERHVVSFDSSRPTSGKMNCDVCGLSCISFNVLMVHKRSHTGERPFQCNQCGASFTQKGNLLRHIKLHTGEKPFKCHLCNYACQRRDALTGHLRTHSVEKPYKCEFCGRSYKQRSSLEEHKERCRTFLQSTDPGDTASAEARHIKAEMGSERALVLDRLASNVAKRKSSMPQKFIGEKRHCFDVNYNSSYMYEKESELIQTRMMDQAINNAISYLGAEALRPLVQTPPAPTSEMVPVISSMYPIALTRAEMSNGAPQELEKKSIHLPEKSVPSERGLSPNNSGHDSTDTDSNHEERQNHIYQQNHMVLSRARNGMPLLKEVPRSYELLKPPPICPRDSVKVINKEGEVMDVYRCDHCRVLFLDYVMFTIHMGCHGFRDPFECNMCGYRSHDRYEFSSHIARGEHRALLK
T7 sequence (Q96SW2 whole entry): as the sequence (Q96SW2 whole entry) above
T7 sequence (Q16531 whole entry partner): as the sequence (Q16531 whole entry partner) above
T2 sequence (Q96SW2 whole entry): as the sequence (Q96SW2 whole entry) above
T1 sequence (P48729 whole entry): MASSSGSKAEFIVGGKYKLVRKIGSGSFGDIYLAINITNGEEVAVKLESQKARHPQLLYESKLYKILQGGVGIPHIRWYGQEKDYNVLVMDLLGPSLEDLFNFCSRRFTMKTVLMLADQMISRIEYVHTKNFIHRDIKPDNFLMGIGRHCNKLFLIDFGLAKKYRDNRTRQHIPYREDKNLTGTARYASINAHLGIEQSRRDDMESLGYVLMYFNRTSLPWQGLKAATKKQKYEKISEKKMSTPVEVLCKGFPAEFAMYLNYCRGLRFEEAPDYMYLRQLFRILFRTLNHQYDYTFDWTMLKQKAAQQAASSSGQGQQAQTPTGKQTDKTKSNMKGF
T1 sequence (Q96SW2 whole entry): as the sequence (Q96SW2 whole entry) above
T1 sequence (Q16531 whole entry partner): as the sequence (Q16531 whole entry partner) above
T4 sequence (P15170 whole entry): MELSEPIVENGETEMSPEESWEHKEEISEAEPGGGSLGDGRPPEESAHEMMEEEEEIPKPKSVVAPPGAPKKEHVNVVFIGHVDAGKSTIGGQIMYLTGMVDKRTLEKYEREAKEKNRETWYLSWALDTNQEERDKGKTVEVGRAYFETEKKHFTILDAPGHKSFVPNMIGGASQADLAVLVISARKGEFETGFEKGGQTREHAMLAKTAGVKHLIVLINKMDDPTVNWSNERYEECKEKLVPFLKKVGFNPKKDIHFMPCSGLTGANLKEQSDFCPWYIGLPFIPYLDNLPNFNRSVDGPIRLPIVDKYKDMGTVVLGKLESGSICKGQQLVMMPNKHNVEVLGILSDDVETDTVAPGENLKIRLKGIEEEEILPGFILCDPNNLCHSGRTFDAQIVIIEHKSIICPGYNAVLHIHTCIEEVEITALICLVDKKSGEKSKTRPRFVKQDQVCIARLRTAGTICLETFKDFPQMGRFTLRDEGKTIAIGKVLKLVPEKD
T4 sequence (Q96SW2 whole entry): as the sequence (Q96SW2 whole entry) above
T4 sequence (Q16531 whole entry partner): as the sequence (Q16531 whole entry partner) above
T5 sequence (Q13422 whole entry): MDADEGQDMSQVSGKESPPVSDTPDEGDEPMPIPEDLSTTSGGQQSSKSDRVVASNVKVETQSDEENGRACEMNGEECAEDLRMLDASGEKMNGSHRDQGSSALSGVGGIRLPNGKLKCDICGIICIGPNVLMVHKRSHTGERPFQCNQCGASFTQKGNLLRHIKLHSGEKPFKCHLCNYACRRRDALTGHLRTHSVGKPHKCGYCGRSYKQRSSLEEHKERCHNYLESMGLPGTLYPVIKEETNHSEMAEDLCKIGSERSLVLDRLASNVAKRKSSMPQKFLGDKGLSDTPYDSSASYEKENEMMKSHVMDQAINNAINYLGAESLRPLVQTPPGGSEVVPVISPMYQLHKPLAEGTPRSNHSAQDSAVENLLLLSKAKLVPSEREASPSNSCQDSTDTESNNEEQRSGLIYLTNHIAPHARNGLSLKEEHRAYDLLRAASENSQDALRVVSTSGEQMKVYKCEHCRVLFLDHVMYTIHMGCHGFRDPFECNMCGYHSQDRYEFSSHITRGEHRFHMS
T5 sequence (Q96SW2 whole entry): as the sequence (Q96SW2 whole entry) above
T5 sequence (Q16531 whole entry partner): as the sequence (Q16531 whole entry partner) above

SMILES	CK1a substrate protein remaining % (CK1α; [2])	IC50 [1] [nM]	IKZF2 substrate protein remaining % (IKZF2; [2])	GSPT1 substrate protein remaining % (GSPT1; [2])	IKZF 1 substrate protein remaining % (IKZF1; [2])	Weel substrate protein remaining % (WEE1; [2])	IKZF3 substrate protein remaining % (IKZF3; [2])	CK1a substrate protein remaining % (CK1α; [3])	IKZF2 substrate protein remaining % (IKZF2; [3])	GSPT1 substrate protein remaining % (GSPT1; [3])	IKZF 1 substrate protein remaining % (IKZF1; [3])	Weel substrate protein remaining % (WEE1; [3])	IKZF3 substrate protein remaining % (IKZF3; [3])
O=C1CCC(N2Cc3cc(CN4CCN(c5ncccc5Cl)CC4)ccc3C2=O)C(=O)N1 (stereo not shown) [GT-04428, 3-(5-((4-(3-chloropyridin-2-yl)piperazin-1-yl)methyl)-1-oxoisoindolin-2-yl)piperidine-2,6-dione]	B (80%< substrate protein remaining %≤ 100%)	< 500	B (80%< substrate protein remaining %≤ 100%)	A (0% ≤ substrate protein remaining % ≤ 80%)	B (80%< substrate protein remaining %≤ 100%)	B (80%< substrate protein remaining %≤ 100%)	B (80%< substrate protein remaining %≤ 100%)						
Cc1sc2ncnc(N3CCN(Cc4ccc5c(c4)CN(C4CCC(=O)NC4=O)C5=O)CC3)c2c1C (stereo not shown) [GT-04706, 3-(5-((4-(5,6-dimethylthieno[2,3-d]pyrimidin-4-yl)piperazin-1-yl)methyl)-1-oxoisoindolin-2-yl)piperidine-2,6-dione]	A (0% ≤ substrate protein remaining % ≤ 80%)	500 to 1000	A (0% ≤ substrate protein remaining % ≤ 80%)	A (0% ≤ substrate protein remaining % ≤ 80%)	A (0% ≤ substrate protein remaining % ≤ 80%)	B (80%< substrate protein remaining %≤ 100%)	A (0% ≤ substrate protein remaining % ≤ 80%)						
O=C1CCC(N2Cc3cc(CN4CCN(c5ccnc(F)c5F)CC4)ccc3C2=O)C(=O)N1 (stereo not shown) [GT-04543, 3-(5-((4-(2,3-difluoropyridin-4-yl)piperazin-1-yl)methyl)-1-oxoisoindolin-2-yl)piperidine-2,6-dione]	B (80%< substrate protein remaining %≤ 100%)	500 to 1000	A (0% ≤ substrate protein remaining % ≤ 80%)	A (0% ≤ substrate protein remaining % ≤ 80%)	A (0% ≤ substrate protein remaining % ≤ 80%)	A (0% ≤ substrate protein remaining % ≤ 80%)	A (0% ≤ substrate protein remaining % ≤ 80%)						
O=C1CCC(N2C(=O)c3ccc(CN4CC=C(c5ncnc6scc(-c7ccccc7)c56)CC4)cc3C2=O)C(=O)N1 (stereo not shown) [GT-06676, 2-(2,6-dioxopiperidin-3-yl)-5-((4-(5-phenylthieno[2,3-d]pyrimidin-4-yl)-3,6-dihydropyridin-1(2H)-yl)methyl)isoindoline-1,3-dione]		1000 to 1500						A (0% ≤ substrate protein remaining % ≤ 80%)	B (80%< substrate protein remaining %≤ 100%)	B (80%< substrate protein remaining %≤ 100%)	B (80%< substrate protein remaining %≤ 100%)	A (0% ≤ substrate protein remaining % ≤ 80%)	B (80%< substrate protein remaining %≤ 100%)
Cc1sc2ncnc(N3CCCN(Cc4ccc5c(c4)CN(C4CCC(=O)NC4=O)C5=O)CC3)c2c1C (stereo not shown) [GT-04707, 3-(5-((4-(5,6-dimethylthieno[2,3-d]pyrimidin-4-yl)-1,4-diazepan-1-yl)methyl)-1-oxoisoindolin-2-yl)piperidine-2,6-dione]	A (0% ≤ substrate protein remaining % ≤ 80%)	< 500	A (0% ≤ substrate protein remaining % ≤ 80%)	A (0% ≤ substrate protein remaining % ≤ 80%)	A (0% ≤ substrate protein remaining % ≤ 80%)	B (80%< substrate protein remaining %≤ 100%)	A (0% ≤ substrate protein remaining % ≤ 80%)						
Cc1cc2c(C3CCN(Cc4ccc5c(c4)CN(C4CCC(=O)NC4=O)C5=O)CC3)ncnc2s1 (stereo not shown) [GT-04717, 3-(5-((4-(6-methylthieno[2,3-d]pyrimidin-4-yl)piperidin-1-yl)methyl)-1-oxoisoindolin-2-yl)piperidine-2,6-dione]	B (80%< substrate protein remaining %≤ 100%)	500 to 1000	A (0% ≤ substrate protein remaining % ≤ 80%)	A (0% ≤ substrate protein remaining % ≤ 80%)	B (80%< substrate protein remaining %≤ 100%)	B (80%< substrate protein remaining %≤ 100%)	A (0% ≤ substrate protein remaining % ≤ 80%)						
O=C1CCC(N2Cc3cc(CN4CCN(c5nc(N6CCC6)nc6c5SCC6)CC4)ccc3C2=O)C(=O)N1 (stereo not shown) [GT-05900, 3-(5-((4-(2-(azetidin-1-yl)-6,7-dihydrothieno[3,2-d]pyrimidin-4-yl)piperazin-1-yl)methyl)-1-oxoisoindolin-2-yl)piperidine-2,6-dione]		< 500						B (80%< substrate protein remaining %≤ 100%)	A (0% ≤ substrate protein remaining % ≤ 80%)	B (80%< substrate protein remaining %≤ 100%)	B (80%< substrate protein remaining %≤ 100%)	B (80%< substrate protein remaining %≤ 100%)	A (0% ≤ substrate protein remaining % ≤ 80%)
O=C1CCC(N2Cc3cc(CN4CCN(c5ccc(Cl)nn5)CC4)ccc3C2=O)C(=O)N1 (stereo not shown) [GT-04482, 3-(5-((4-(6-chloropyridazin-3-yl)piperazin-1-yl)methyl)-1-oxoisoindolin-2-yl)piperidine-2,6-dione]	A (0% ≤ substrate protein remaining % ≤ 80%)	500 to 1000	A (0% ≤ substrate protein remaining % ≤ 80%)	A (0% ≤ substrate protein remaining % ≤ 80%)	B (80%< substrate protein remaining %≤ 100%)	A (0% ≤ substrate protein remaining % ≤ 80%)	B (80%< substrate protein remaining %≤ 100%)						
Cc1cc(N2CCN(Cc3ccc4c(c3)CN(C3CCC(=O)NC3=O)C4=O)CC2)cc(C)n1 (stereo not shown) [GT-04492, 3-(5-((4-(2,6-dimethylpyridin-4-yl)piperazin-1-yl)methyl)-1-oxoisoindolin-2-yl)piperidine-2,6-dione]	A (0% ≤ substrate protein remaining % ≤ 80%)	500 to 1000	B (80%< substrate protein remaining %≤ 100%)	A (0% ≤ substrate protein remaining % ≤ 80%)	B (80%< substrate protein remaining %≤ 100%)	B (80%< substrate protein remaining %≤ 100%)	B (80%< substrate protein remaining %≤ 100%)						
O=C1CCC(N2Cc3cc(CN4CCN(c5c(Cl)cncc5Br)CC4)ccc3C2=O)C(=O)N1 (stereo not shown) [GT-04600, 3-(5-((4-(3-bromo-5-chloropyridin-4-yl)piperazin-1-yl)methyl)-1-oxoisoindolin-2-yl)piperidine-2,6-dione]	B (80%< substrate protein remaining %≤ 100%)	500 to 1000	A (0% ≤ substrate protein remaining % ≤ 80%)	A (0% ≤ substrate protein remaining % ≤ 80%)	A (0% ≤ substrate protein remaining % ≤ 80%)	A (0% ≤ substrate protein remaining % ≤ 80%)	A (0% ≤ substrate protein remaining % ≤ 80%)						
